Results as given in patent US9353107B2 (Aurigene Discovery Technologies Limited, priority 2012, dated 2016).
Counter-ions that a name gives are not always drawn.

Biological target: T1, recombinant human ALK enzyme (ALK WT) (Homo sapiens, UniProt Q9UM73)
T1 construct: purchased Carna Biosciences 08-518
Assay: ALK WT cell free enzymatic assay (TR-FRET)
Assay type: biochemical
Conditions: 1 μM ATP; for IC50: 10 point dose response; for inhibition at 0.1 µM: compound at 100 nM; for inhibition at 0.1 µM / inhibition at 1 µM: 30 min pre-incubation; for inhibition at 1 µM: compound at 1 μM
How it was run: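 Recombinant human ALK with 40 nM Ultra Light Poly GT, 1 μM ATP and Eu anti-phosphotyrosine antibody, 1% DMSO, pH 7.1 HEPES; 30 min enzyme-compound pre-incubation, then 30 min reaction. TR-FRET 665/615 ratio; percent inhibition at 100 nM and 1 μM, IC50 from 10-point sigmoidal fit.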

T1 sequence (Q9UM73 1058-1620 limits assumed): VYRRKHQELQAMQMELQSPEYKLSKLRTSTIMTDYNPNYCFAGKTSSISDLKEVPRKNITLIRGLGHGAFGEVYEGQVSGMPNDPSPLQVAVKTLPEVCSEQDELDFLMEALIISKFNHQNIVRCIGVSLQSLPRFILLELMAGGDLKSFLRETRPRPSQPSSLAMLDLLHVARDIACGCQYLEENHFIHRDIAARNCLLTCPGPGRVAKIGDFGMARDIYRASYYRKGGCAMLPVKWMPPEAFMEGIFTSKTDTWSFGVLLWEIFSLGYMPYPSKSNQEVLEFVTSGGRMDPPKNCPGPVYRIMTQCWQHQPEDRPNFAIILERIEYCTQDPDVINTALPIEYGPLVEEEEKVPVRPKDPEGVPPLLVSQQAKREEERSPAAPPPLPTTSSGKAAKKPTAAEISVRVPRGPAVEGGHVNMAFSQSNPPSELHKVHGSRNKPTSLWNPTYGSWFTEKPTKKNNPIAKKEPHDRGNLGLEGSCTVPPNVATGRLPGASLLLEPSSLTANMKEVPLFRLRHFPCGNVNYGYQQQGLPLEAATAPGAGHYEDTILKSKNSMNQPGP

Row | SMILES | IC50 | inhibition at 0.1 µM | inhibition at 1 µM
1 | CNS(=O)(=O)c1cc(-c2cnc3[nH]cc(-c4c(C)nn(Cc5cc(F)ccc5F)c4C)c3c2)ccc1OC [Example 20, 5-(3-(1-(2,5-difluorobenzyl)-3,5-dimethyl-1H-pyrazol-4-yl)-1H-pyrrolo[2,3-b]pyridin-5-yl)-2-methoxy-N-methylbenzenesulfonamide] | > 250 nM | 17% | 75%
2 | COc1ccc(-c2cnc3[nH]cc(-c4cnn(CCc5ccccc5)c4)c3c2)cc1NS(C)(=O)=O [Example 64, N-(2-methoxy-5-(3-(1-phenethyl-1H-pyrazol-4-yl)-1H-pyrrolo[2,3-b]pyridin-5-yl)phenyl) methanesulfonamide] | < 50 nM | 59% | 82%
3 | c1cc(Cn2cc(-c3c[nH]c4ncc(-c5ccc(C6CCNCC6)cc5)cc34)cn2)ccn1 [Example 171, 5-(4-(piperidin-4-yl)phenyl)-3-(1-(pyridin-4-ylmethyl)-1H-pyrazol-4-yl)-1H-pyrrolo[2,3-b]pyridine] | 50 to 250 nM | 41% | 88%
4 | OC1CCN(c2ccc(-c3cnc4[nH]cc(-c5cnn(Cc6cccc(F)c6)c5)c4c3)cn2)CC1 [Example 155, 1-(5-(3-(1-(3-fluorobenzyl)-1H-pyrazol-4-yl)-1H-pyrrolo[2,3-b]pyridin-5-yl)pyridin-2-yl)piperidin-4-ol] | < 50 nM | 86% | 97%
5 | Cc1nn(Cc2cccc(F)c2)c(C)c1-c1c[nH]c2ncc(-c3ccc(NC4CCNCC4)cc3)cc12 [Example 101, N-(4-(3-(1-(3-fluorobenzyl)-3,5-dimethyl-1H-pyrazol-4-yl)-1H-pyrrolo[2,3-b]pyridin-5-yl)phenyl)piperidin-4-amine] | < 50 nM | 99% | 100%
6 | CS(=O)(=O)Nc1cccc(-c2cnc3[nH]cc(-c4cnn(Cc5cc(F)ccc5F)c4)c3c2)c1 [Example 4, N-(3-(3-(1-(2,5-difluorobenzyl)-1H-pyrazol-4-yl)-1H-pyrrolo[2,3-b]pyridin-5-yl)phenyl)methane sulfonamide] | 50 to 250 nM |  | 95%
7 | CCS(=O)(=O)Nc1cc(-c2cnc3[nH]cc(-c4c(C)nn(Cc5cccc(F)c5)c4C)c3c2)ccc1OC [Example 15, N-(5-(3-(1-(3-fluorobenzyl)-3,5-dimethyl-1H-pyrazol-4-yl)-1H-pyrrolo[2,3-b]pyridin-5-yl)-2-methoxyphenyl)ethanesulfonamide] |  | 33% | 75%
8 | Cc1cccc(Cn2cc(-c3c[nH]c4ncc(-c5ccc(N6CCN(C[C@H](C)O)CC6)nc5)cc34)cn2)c1 [Example 145, (S)-1-(4-(5-(3-(1-(3-methylbenzyl)-1H-pyrazol-4-yl)-1H-pyrrolo[2,3-b]pyridin-5-yl)pyridin-2-yl)piperazin-1-yl)propan-2-ol] | < 50 nM | 83% | 99%
9 | COc1cc(-c2cnc3[nH]cc(-c4cnn(Cc5cccc(F)c5)c4)c3c2)cnc1N [Example 81, 5-(3-(1-(3-fluorobenzyl)-1H-pyrazol-4-yl)-1H-pyrrolo[2,3-b]pyridin-5-yl)-3-methoxypyridin-2-amine] | < 50 nM | 94% | 96%
10 | COc1ncc(-c2cnc3[nH]cc(-c4cnn(Cc5cccc(F)c5)c4)c3c2)cc1N [Example 65, 5-(3-(1-(3-fluorobenzyl)-1H-pyrazol-4-yl)-1H-pyrrolo[2,3-b]pyridin-5-yl)-2-methoxypyridin-3-amine] | < 50 nM | 97% | 100%
11 | COc1ccc(-c2cnc3[nH]cc(-c4cnn(Cc5cc(F)cc(F)c5)c4)c3c2)cc1NS(C)(=O)=O [Example 71, N-(5-(3-(1-(3,5-difluorobenzyl)-1H-pyrazol-4-yl)-1H-pyrrolo[2,3-b]pyridin-5-yl)-2-methoxyphenyl)methanesulfonamide] | < 50 nM | 94% | 100%

Next, values leading:

Row | IC50 | inhibition at 0.1 µM | inhibition at 1 µM | SMILES
12 | < 50 nM | 98% | 100% | COc1ncc(-c2cnc3[nH]cc(-c4cnn(Cc5cccc(F)c5)c4)c3c2)cc1NS(C)(=O)=O [Example 67, N-(5-(3-(1-(3-fluorobenzyl)-1H-pyrazol-4-yl)-1H-pyrrolo[2,3-b]pyridin-5-yl)-2-methoxypyridin-3-yl)methanesulfonamide]
13 | < 50 nM | 53% | 96% | Cc1nn(Cc2cccc(F)c2)c(C)c1-c1c[nH]c2ncc(-c3ccc(OCCO)c(NS(C)(=O)=O)c3)cc12 [Example 24, N-(5-(3-(1-(3-fluorobenzyl)-3,5-dimethyl-1H-pyrazol-4-yl)-1H-pyrrolo[2,3-b]pyridin-5-yl)-2-(2-hydroxyethoxyl)phenyl)methanesulfonamide]
14 | < 50 nM | 85% | 100% | CS(=O)(=O)Nc1cc(-c2cnc3[nH]cc(-c4cnn(CCc5ccccc5)c4)c3c2)ccc1F [Example 77, N-(2-fluoro-5-(3-(1-phenethyl-1H-pyrazol-4-yl)-1H-pyrrolo[2,3-b]pyridin-5-yl)phenyl)methane sulfonamide]
15 | < 50 nM | 96% | 100% | Cc1nn(Cc2cccc(F)c2)c(C)c1-c1c[nH]c2ncc(-c3ccc(OCCCN(C)C)c(NS(C)(=O)=O)c3)cc12 [Example 26, N-(2-(3-(dimethylamino)propoxy)-5-(3-(1-(3-fluorobenzyl)-3,5-dimethyl-1H-pyrazol-4-yl)-1H-pyrrolo[2,3-b]pyridin-5-yl)phenyl)methanesulfonamide]
16 | 50 to 250 nM | 76% | 100% | COc1ccc(-c2cnc3[nH]cc(-c4cnn(Cc5cccnc5)c4)c3c2)cc1NS(C)(=O)=O [Example 72, N-(2-methoxy-5-(3-(1-(pyridin-3-ylmethyl)-1H-pyrazol-4-yl)-1H-pyrrolo[2,3-b]pyridin-5-yl)phenyl)methanesulfonamide]
17 | < 50 nM | 94% | 98% | CS(=O)(=O)Nc1cc(-c2cnc3[nH]cc(-c4cnn(Cc5cccc(F)c5)c4)c3c2)ccc1N1CCN(CC(N)=O)CC1 [Example 110, 2-(4-(4-(3-(1-(3-fluorobenzyl)-1H-pyrazol-4-yl)-1H-pyrrolo[2,3-b]pyridin-5-yl)-2-(methylsulfonamido)phenyl)piperazin-1-yl)acetamide]
18 | < 50 nM | 99% | 100% | Fc1cccc(Cn2cc(-c3c[nH]c4ncc(-c5ccc(N6CCNCC6)c(F)c5)cc34)cn2)c1 [Example 172, 5-(3-fluoro-4-(piperazin-1-yl)phenyl)-3-(1-(3-fluorobenzyl)-1H-pyrazol-4-yl)-1H-pyrrolo[2,3-b]pyridine]
19 | < 50 nM | 95% | 100% | Cc1c(-c2c[nH]c3ncc(-c4ccc(N5CCNCC5)cc4)cc23)cnn1Cc1cccc(F)c1 [Example 44, 3-(1-(3-fluorobenzyl)-5-methyl-1H-pyrazol-4-yl)-5-(4-(piperazin-1-yl)phenyl)-1H-pyrrolo[2,3-b]pyridine hydrochloride]
20 | < 50 nM | 92% | 94% | O=C(CO)N1CCN(c2ccc(-c3cnc4[nH]cc(-c5cnn(Cc6cccc(F)c6)c5)c4c3)cc2)CC1 [Example 128, 1-(4-(4-(3-(1-(3-fluorobenzyl)-1H-pyrazol-4-yl)-1H-pyrrolo[2,3-b]pyridin-5-yl)phenyl)piperazin-1-yl)-2-hydroxyethanone]
21 | < 50 nM | 89% | 99% | c1ccc(CCn2cc(-c3c[nH]c4ncc(-c5ccc(C6CCNCC6)cc5)cc34)cn2)cc1 [Example 88, 3-(1-phenethyl-1H-pyrazol-4-yl)-5-(4-(piperidin-4-yl)phenyl)-1H-pyrrolo[2,3-b]pyridine]
22 | < 50 nM | 94% | 100% | COc1cc(-c2cnc3[nH]cc(-c4c(C)nn(Cc5cccc(F)c5)c4C)c3c2)cnc1N [Example 178, 5-(3-(1-(3-fluorobenzyl)-3,5-dimethyl-1H-pyrazol-4-yl)-1H-pyrrolo[2,3-b]pyridin-5-yl)-3-methoxypyridin-2-amine]
23 | < 50 nM | 88% | 99% | Cc1nn(Cc2cccc(F)c2)cc1-c1c[nH]c2ncc(-c3ccc(N4CCN(C[C@H](C)O)CC4)cc3)cc12 [Example 130, (S)-1-(4-(4-(3-(1-(3-fluorobenzyl)-3-methyl-1H-pyrazol-4-yl)-1H-pyrrolo[2,3-b]pyridin-5-yl)phenyl)piperazin-1-yl)propan-2-ol]
24 |  | 80% | 86% | c1ccc(CCn2cc(-c3c[nH]c4ncc(-c5ccc(N6CCNCC6)cc5)cc34)cn2)cc1 [Example 185, 3-(1-phenethyl-1H-pyrazol-4-yl)-5-(4-(piperazin-1-yl)phenyl)-1H-pyrrolo[2,3-b]pyridine]
25 | < 50 nM | 99% | 100% | CN(C)CC(=O)N1CCN(c2ccc(-c3cnc4[nH]cc(-c5cnn(Cc6cccc(F)c6)c5)c4c3)cn2)CC1 [Example 147, 2-(dimethylamino)-1-(4-(5-(3-(1-(3-fluorobenzyl)-1H-pyrazol-4-yl)-1H-pyrrolo[2,3-b]pyridin-5-yl)pyridin-2-yl)piperazin-1-yl)ethanone]
26 |  | 9% | 10% | Cc1nn(Cc2cc(F)cc(F)c2)c(C)c1-c1c[nH]c2nc(C3CC3)c(-c3ccc(N4CCNCC4)cc3)cc12 [Example 60, 6-cyclopropyl-3-(1-(3,5-difluorobenzyl)-3,5-dimethyl-1H-pyrazol-4-yl)-5-(4-(piperazin-1-yl)phenyl)-1H-pyrrolo[2,3-b]pyridine hydrochloride]
